Experimental data from article PMC4459787 (Science (New York, N.Y.), 2014).
Ends that are not written are not given here.

Experiments:
[1] = tested on: EAAT2 transcript; assay: RT-PCR of EAAT2 transcript splicing in human astrocytes; format: cell-based; details: for aberrant EAAT2 splicing: human astrocytes exposed to toxin until clear evidence of toxicity, PCR, fig. S6B
[2] = target: mCherry:hnRNPA2 hydrogel droplets (low complexity domain of hnRNPA2) (Homo sapiens, UniProt P22626); assay: Binding to mCherry:hnRNPA2 hydrogel droplets; details: GFP signal at the periphery of mCherry:hnRNPA2 hydrogel droplets; overnight incubation at 4°C
[3] = tested on: U2OS cells; assay: Cell entry and nucleolar localisation by HA immunostaining in U2OS cells; format: cell-based; details: 10 μM, 30 min, fixed, HA antibody staining
[4] = tested on: human astrocytes; assay: Nucleolar localisation by HA immunostaining in human astrocytes; format: cell-based; details: U2OS cancer cells and human astrocytes, HA antibody and Fibrillarin staining
[5] = tested on: U2OS cells; format: cell-based
[6] = format: in vitro ADME; details: cells or culture medium
[7] = tested on: ribosomal RNA (45S precursor, 18S, 5.8S, 28S); assay: qPCR of rRNA synthesis and processing in peptide-treated human astrocytes; format: cell-based; details: 12 hours
[8] = tested on: pre-mRNA splicing (RAN GTPase, PTX3, NACA, GADD45A); format: cell-based; details: human astrocytes

mCherry:hnRNPA2 hydrogel droplets (low complexity domain of hnRNPA2), sequence (P22626 193-353 limits assumed, one chain of several): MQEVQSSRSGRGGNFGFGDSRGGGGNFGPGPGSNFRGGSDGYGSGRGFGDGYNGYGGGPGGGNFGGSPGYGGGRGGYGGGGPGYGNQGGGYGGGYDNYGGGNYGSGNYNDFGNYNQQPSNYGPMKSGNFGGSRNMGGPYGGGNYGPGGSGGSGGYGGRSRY

Molecule: CC(=O)O[C@H]1C(=O)[C@@]2(C)[C@H]([C@H](OC(=O)c3ccccc3)[C@]3(O)C[C@H](OC(=O)[C@H](O)[C@@H](NC(=O)c4ccccc4)c4ccccc4)C(C)=C1C3(C)C)[C@]1(OC(C)=O)CO[C@@H]1C[C@@H]2O [taxol]
- aberrant EAAT2 splicing [1]: None of the four toxins gave evidence of aberrant splicing

Molecule: COc1cccc2c1C(=O)c1c(O)c3c(c(O)c1C2=O)C[C@@](O)(C(=O)CO)C[C@@H]3O[C@H]1C[C@H](N)[C@H](O)[C@H](C)O1 [doxorubicin]
- aberrant EAAT2 splicing [1]: None of the four toxins gave evidence of aberrant splicing

Molecule: CN[C@@H]1C[C@H]2O[C@@](C)([C@@H]1OC)n1c3ccccc3c3c4c(c5c6ccccc6n2c5c31)C(=O)NC4 [staurosporin]
- aberrant EAAT2 splicing [1]: None of the four toxins gave evidence of aberrant splicing

Molecule: green fluorescent protein [GFP]
- binding to hnRNPA2 hydrogel droplets [2]: did not bind

Molecule: CC(C)[C@H](NC(=O)[C@H](CC(=O)O)NC(=O)[C@H](Cc1ccc(O)cc1)NC(=O)[C@@H]1CCCN1C(=O)[C@H](Cc1ccc(O)cc1)NC(=O)[C@H](CCCNC(=N)N)NC(=O)CNC(=O)[C@H](CCCNC(=N)N)NC(=O)CNC(=O)[C@H](CCCNC(=N)N)NC(=O)CNC(=O)[C@H](CCCNC(=N)N)NC(=O)CNC(=O)[C@H](CCCNC(=N)N)NC(=O)CNC(=O)[C@H](CCCNC(=N)N)NC(=O)CNC(=O)[C@H](CCCNC(=N)N)NC(=O)CNC(=O)[C@H](CCCNC(=N)N)NC(=O)CNC(=O)[C@H](CCCNC(=N)N)NC(=O)CNC(=O)[C@H](CCCNC(=N)N)NC(=O)CNC(=O)[C@H](CCCNC(=N)N)NC(=O)CNC(=O)[C@H](CCCNC(=N)N)NC(=O)CNC(=O)[C@H](CCCNC(=N)N)NC(=O)CNC(=O)[C@H](CCCNC(=N)N)NC(=O)CNC(=O)[C@H](CCCNC(=N)N)NC(=O)CNC(=O)[C@H](CCCNC(=N)N)NC(=O)CNC(=O)[C@H](CCCNC(=N)N)NC(=O)CNC(=O)[C@H](CCCNC(=N)N)NC(=O)CNC(=O)[C@H](CCCNC(=N)N)NC(=O)CNC(=O)[C@H](CCCNC(=N)N)NC(=O)CN)C(=O)N1CCC[C@H]1C(=O)N[C@@H](CC(=O)O)C(=O)N[C@@H](Cc1ccc(O)cc1)C(=O)N[C@@H](C)C(=O)O [GR20]
- cell entry and localisation [3]: entered cells, migrated to the nucleus and bound to nucleoli
- nucleolar association [4]: associated prominently with nucleoli

Molecule: PRPRPRPRPRPRPRPRPRPRPRPRPRPRPRPRPRPRPRPRYPYDVPDYA [PR20]
- time to half-maximal impact on cell viability ([5]; 10 μM peptide, fig. S4E): roughly 36 hours
- time to 50% cell death ([5]; 30 μM dose of the peptide, fig. S4F): 6 h
- cell morphology ([5]; U2OS cells, 10 μM, within 24 hours): spindle-like phenotype
- cell morphology and viability ([5]; U2OS cells, 30 μM, 24 hours): almost all cells were detached from the culture substrate and dead
- half-life [6]: 72 h
- attenuation of rRNA precursor, 3′ junction of 5.8S rRNA ([7]; 10 μM, qPCR): 40%
- attenuation of rRNA precursor, third probe (5′ end of 5.8S rRNA) ([7]; 10 μM, qPCR): roughly 20%
- elevation of rRNA precursor, 5′ transcribed spacer primers ([7]; 10 μM, qPCR): 20%
- immature rRNA, first junctional probe (5′ end of 18S rRNA) ([7]; 10 μM, qPCR): elevation in immature rRNA
- rRNA precursor, 5′ junction of 28S rRNA ([7]; 10 μM, qPCR): normal precursor levels
- rRNA precursor, second junctional probe (3′ end of 18S rRNA) ([7]; 10 μM, qPCR): normal levels of rRNA precursor
- 28S rRNA level ([7]; 30 μM, qPCR): Slight reductions
- drop of rRNA precursor, 3′ terminus of 5.8S rRNA ([7]; 30 μM, qPCR): 70%
- reduction of the level of 5.8S rRNA ([7]; 30 μM, qPCR relative to vehicle): 70%
- cell entry and localisation [3]: entered cells, migrated to the nucleus and bound to nucleoli
- nucleolar association [4]: associated prominently with nucleoli
- aberrant EAAT2 splicing (exon 9-skipped form and intron 7 retention) ([1]; human astrocytes, 10 or 15 μM, 36 hours, RT-PCR): appeared in a concentration-dependent manner
- splicing of GADD45 mRNA ([8]; 6 hours, RT-PCR): include the full intronic sequences on both sides of exon 2
- splicing of NACA mRNA ([8]; 6 hours, RT-PCR): contain a different 5′ UTR
- splicing of PTX3 mRNA ([8]; 6 hours, RT-PCR): exon 2-skipping
- splicing of RAN GTPase mRNA ([8]; 6 hours, RT-PCR): exon 2-skipping
- expression of the ribosomal protein gene family ([8]; RNA-seq, P < 2.2e-16, Kolmogorov–Smirnov test): significantly up-regulated

Molecule: C=C1[C@@H](C)[C@H]2[C@H](Cc3ccccc3)NC(=O)[C@]23[C@H](OC(C)=O)/C=C/[C@@](C)(O)C(=O)[C@@H](C)C/C=C/[C@H]3[C@@H]1O [cytochalasin D]
- aberrant EAAT2 splicing [1]: None of the four toxins gave evidence of aberrant splicing
